The results in this text go back to ChEMBL document CHEMBL1921749, “5-Lipoxygenase-activating protein (FLAP) inhibitors. Part 4: development of 3-[3-tert-butylsulfanyl-1-[4-(6-ethoxypyridin-3-yl)benzyl]-5-(5-methylpyridin-2-ylmethoxy)-1H-indol-2-yl]-2,2-dimethylpropionic acid (AM803), a potent, oral, once daily FLAP inhibitor” (J Med Chem, 2011).

The structures appear in SMILES notation. Where only a bound is given, the exact number is not on record here.

Series [1] can be described thus: Clearance in Beagle dog at 2 mg/kg, iv. It counts as ADME, organism-based, Canis lupus familiaris. Also noted: dose 2 mg/kg, route intravenous. The note with it: in vivo.
For series [2], the target named is T1, Leukotriene A-4 hydrolase (Homo sapiens, UniProt P09960).
T1 sequence (P09960 whole entry): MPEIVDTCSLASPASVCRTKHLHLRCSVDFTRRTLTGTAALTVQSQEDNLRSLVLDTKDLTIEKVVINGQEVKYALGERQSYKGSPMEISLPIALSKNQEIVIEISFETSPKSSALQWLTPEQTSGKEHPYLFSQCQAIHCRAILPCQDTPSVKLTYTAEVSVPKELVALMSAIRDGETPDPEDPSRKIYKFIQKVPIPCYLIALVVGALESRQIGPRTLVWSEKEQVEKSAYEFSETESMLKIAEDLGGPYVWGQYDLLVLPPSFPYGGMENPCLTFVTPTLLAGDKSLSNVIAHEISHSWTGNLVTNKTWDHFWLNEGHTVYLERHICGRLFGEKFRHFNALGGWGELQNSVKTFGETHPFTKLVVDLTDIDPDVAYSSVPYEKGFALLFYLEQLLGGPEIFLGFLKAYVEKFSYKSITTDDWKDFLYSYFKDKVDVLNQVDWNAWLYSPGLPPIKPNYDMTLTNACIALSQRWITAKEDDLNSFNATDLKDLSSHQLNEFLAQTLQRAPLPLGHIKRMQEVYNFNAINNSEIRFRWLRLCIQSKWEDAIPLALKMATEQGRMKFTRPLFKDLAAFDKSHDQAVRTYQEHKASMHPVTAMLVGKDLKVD
In words: Inhibition of LTA4 […].

In series [3] the target is T2, Arachidonate 5-lipoxygenase-activating protein (Homo sapiens, UniProt P20292).
T2 sequence (P20292 whole entry): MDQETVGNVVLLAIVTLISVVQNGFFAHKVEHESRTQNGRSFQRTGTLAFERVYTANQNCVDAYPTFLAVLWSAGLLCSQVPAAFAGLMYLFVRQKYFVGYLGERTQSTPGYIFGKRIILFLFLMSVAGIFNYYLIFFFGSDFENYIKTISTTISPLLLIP
In words: Inhibition of FLAP in human peripheral leukocytes assessed as inhibition of calcium ionophore A23187-induced LTB4 production after 10 mins by ELISA. It counts as cell-based.

Series [4] has as its target T3, Arachidonate 5-lipoxygenase-activating protein (Rattus norvegicus, UniProt P20291).
T3 sequence (P20291 whole entry): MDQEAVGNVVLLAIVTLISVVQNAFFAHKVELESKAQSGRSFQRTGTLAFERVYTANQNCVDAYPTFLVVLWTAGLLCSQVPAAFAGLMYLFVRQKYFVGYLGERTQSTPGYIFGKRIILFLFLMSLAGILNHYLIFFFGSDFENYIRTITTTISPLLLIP
The series can be described thus: Inhibition of FLAP in rat whole blood assessed as inhibition of calcium ionophore A23187-induced LTB4 production preincubated for 15 mins by ELISA. It counts as tissue-based. (In general: An ELISA detects its analyte on a solid surface through an enzyme-linked reagent.)

For another series, the target named is Cytochrome P450 2C9 (Homo sapiens, UniProt P11712). In words: Inhibition of human CYP2C9. In kind it is ADME.
Series [5] has as its target T3, Arachidonate 5-lipoxygenase-activating protein. The series can be described thus: Inhibition of FLAP in rat whole blood assessed as inhibition of calcium ionophore A23187-induced LTB4 production preincubated for 4 hrs by ELISA. In kind it is tissue-based.
Series [6] concerns the target T4, Polyunsaturated fatty acid 5-lipoxygenase (Homo sapiens, UniProt P09917).
T4 sequence (P09917 whole entry): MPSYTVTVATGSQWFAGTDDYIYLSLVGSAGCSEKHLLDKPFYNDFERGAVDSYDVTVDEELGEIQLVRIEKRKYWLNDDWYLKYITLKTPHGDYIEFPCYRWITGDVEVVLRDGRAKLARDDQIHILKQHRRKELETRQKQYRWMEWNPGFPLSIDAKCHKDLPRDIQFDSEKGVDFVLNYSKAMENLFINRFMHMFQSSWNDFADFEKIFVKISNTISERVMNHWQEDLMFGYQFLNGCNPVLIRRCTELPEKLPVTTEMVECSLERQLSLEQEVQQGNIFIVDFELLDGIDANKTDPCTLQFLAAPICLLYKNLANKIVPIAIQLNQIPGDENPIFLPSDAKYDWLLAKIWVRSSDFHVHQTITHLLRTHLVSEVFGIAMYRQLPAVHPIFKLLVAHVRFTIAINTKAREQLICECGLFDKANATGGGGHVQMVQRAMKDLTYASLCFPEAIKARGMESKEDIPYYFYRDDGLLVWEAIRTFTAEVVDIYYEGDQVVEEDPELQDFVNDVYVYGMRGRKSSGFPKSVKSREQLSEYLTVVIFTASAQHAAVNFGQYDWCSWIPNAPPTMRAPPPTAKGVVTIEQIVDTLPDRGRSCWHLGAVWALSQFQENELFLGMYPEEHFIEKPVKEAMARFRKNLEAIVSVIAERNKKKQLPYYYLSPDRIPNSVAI
In words: Inhibition of 5-lipoxygenase.

Series [7] has as its target T2, Arachidonate 5-lipoxygenase-activating protein. The series can be described thus: Inhibition of FLAP in human whole blood assessed as inhibition of calcium ionophore A23187-induced LTB4 production preincubated for 5 hrs by ELISA.
The next series has as its target Cytochrome P450 3A4 (Homo sapiens, UniProt P08684). In words: Inhibition of human CYP3A4. It counts as ADME.
Another series concerns Rattus norvegicus. In words: Antiinflammatory activity in rat assessed as inhibition of calcium ionophore A23187-induced LTB4 production in bronchoalveolar lavage fluid at 3 mg/kg, po administered 16 hrs prior to A23187 challenge. It counts as functional, Lung. On the set-up: scale not given: the % may be the effect or the level left.

In general, clearance refers to the volume of plasma or blood freed of the substance per unit of time. The IC50 is the concentration that inhibits the measured activity by half.

Chain of Cytochrome P450 2C9 (P11712 whole entry): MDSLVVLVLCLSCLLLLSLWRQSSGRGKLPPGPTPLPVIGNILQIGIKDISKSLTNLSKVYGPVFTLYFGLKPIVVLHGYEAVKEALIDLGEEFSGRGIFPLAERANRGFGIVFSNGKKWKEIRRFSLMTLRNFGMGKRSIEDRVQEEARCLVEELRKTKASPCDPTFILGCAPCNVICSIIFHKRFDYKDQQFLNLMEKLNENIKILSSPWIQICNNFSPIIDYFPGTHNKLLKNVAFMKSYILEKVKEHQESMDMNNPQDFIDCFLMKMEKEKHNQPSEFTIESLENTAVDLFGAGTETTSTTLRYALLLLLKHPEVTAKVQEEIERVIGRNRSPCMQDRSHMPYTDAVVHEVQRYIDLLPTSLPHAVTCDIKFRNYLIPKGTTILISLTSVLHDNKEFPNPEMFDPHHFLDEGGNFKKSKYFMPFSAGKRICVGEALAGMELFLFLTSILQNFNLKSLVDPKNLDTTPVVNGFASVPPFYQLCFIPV
Chain of Cytochrome P450 3A4 (P08684 whole entry): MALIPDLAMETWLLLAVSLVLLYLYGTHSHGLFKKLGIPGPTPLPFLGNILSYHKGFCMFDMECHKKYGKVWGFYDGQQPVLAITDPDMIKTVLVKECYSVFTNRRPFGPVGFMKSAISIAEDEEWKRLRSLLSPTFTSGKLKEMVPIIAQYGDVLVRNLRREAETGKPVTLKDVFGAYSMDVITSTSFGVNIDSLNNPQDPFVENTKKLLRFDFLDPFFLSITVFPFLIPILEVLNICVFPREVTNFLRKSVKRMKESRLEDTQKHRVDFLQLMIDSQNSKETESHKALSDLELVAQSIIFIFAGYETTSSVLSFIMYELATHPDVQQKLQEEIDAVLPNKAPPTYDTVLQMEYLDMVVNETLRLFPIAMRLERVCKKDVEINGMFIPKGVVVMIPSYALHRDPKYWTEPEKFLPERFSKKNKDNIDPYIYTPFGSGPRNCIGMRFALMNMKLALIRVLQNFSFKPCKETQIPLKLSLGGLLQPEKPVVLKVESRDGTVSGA

In turn, `CCOc1ccc(-c2ccc(Cn3c(CC(C)(C)C(=O)O)c(SC(C)(C)C)c4cc(OCc5ccc(C)cn5)ccc43)cc2)cn1` [FIBOFLAPON] registered a clearance in series [1] of 0.6 mL/min/kg. The IC50 in series [2] is over 100000 nM; in [3] it was 0.7 nM; in series [4] it was 239 nM; on Cytochrome P450 2C9 it was over 50000 nM; in series [5], 16 nM; in series [6], 20000 nM. Moreover, the results for the IC50 (in series [7]; at Cytochrome P450 3A4) were 76 nM and over 50000 nM, respectively. The Activity with Rattus norvegicus came to 86%.
